The test deals with T1, Nitric oxide synthase, inducible (Mus musculus, UniProt P29477).
T1 sequence (P29477 whole entry): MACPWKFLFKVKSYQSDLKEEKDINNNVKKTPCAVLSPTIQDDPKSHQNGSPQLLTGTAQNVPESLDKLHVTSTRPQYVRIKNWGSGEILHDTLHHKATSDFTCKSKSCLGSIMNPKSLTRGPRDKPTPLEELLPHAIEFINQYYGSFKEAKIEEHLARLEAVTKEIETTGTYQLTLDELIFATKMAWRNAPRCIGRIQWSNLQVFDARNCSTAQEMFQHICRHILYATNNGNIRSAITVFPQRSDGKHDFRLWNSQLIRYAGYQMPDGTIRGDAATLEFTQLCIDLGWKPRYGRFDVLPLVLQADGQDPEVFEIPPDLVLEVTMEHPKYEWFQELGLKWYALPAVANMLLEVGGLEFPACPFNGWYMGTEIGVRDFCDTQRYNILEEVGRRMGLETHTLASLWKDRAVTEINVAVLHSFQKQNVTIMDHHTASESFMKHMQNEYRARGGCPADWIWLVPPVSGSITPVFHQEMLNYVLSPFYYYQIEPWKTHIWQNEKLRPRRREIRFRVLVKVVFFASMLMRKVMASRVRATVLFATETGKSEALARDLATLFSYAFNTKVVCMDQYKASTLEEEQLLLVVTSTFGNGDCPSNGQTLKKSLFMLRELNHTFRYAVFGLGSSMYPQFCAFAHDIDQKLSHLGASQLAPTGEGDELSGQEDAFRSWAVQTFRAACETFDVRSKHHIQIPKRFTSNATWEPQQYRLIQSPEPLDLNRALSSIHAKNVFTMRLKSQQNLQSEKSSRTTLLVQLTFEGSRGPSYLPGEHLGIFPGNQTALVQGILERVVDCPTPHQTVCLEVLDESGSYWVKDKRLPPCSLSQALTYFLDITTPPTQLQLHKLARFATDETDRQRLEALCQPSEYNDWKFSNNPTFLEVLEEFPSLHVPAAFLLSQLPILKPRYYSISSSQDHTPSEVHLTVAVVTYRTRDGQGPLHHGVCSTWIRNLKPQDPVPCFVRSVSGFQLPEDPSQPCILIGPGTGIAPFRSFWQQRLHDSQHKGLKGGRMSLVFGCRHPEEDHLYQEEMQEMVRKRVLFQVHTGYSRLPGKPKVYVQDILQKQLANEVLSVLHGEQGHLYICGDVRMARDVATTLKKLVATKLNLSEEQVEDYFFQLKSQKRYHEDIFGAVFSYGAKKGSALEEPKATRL
Nature of the test: Compound was evaluated for inhibitory activity against iNOS obtained from RAW 264.7 cells. The class given is cell-based.

Usually IC50 stands for the midpoint of a concentration-inhibition curve. The compound `COC(=O)[C@@H](N)[C@@H]1CC[C@H](/N=C(/C)N)C1` showed an IC50 of more than 200 µM.

`CC(=N)N1CC[C@H](C[C@H](N)C(=O)O)C1` returned an IC50 of 40 µM. This counts as double-digit micromolar.

For the compound `CC(=N)N1CC[C@@H](C[C@H](N)C(=O)O)C1`, the IC50 is more than 200 µM.

Regarding `COC(=O)[C@@H](N)[C@H]1CC[C@H](/N=C(/C)N)C1`, the IC50 is 50 µM.

Take `NC1=NC[C@H](C[C@H](N)C(=O)O)C1`: the IC50 is 25 µM. `NC1=NC[C@@H](C[C@H](N)C(=O)O)C1` gave an IC50 of 36 µM. `COC(=O)[C@@H](N)[C@H]1CC[C@@H](N=C(C)N)C1` gave an IC50 of 47 µM. Under `COC(=O)[C@@H](N)[C@@H]1CC[C@@H](N=C(C)N)C1` stands more than 200 µM; under `CC(=N)NCCC[C@H](N)C(=O)O` [L-NIO], 9 µM.

For the origin of these results see ChEMBL document CHEMBL1130642, “Conformationally constrained NO synthase inhibitors: rigid analogs of L-N-iminoethylornithine” (Bioorg Med Chem Lett, 1998).
